According to patent US20220160650A1, “GEL, OINTMENT, AND FOAM FORMULATIONS OF TAPINAROF AND METHODS OF USE” (Dermavant Sciences GmbH, priority 2020, published 2022):

Key:
[1] = Purity of tapinarof in individual excipients on storage, related substances HPLC method; assay type: physicochemical
In short: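 The stability of the stilbene active ingredient was tested in individual excipients, one excipient per sample. Samples were analysed at time zero and after storage for up to 2 weeks. Purity of the active ingredient was determined by HPLC.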

[2] = Saturated solubility of tapinarof in individual excipients, by tapinarof assay HPLC or visually (Table 2); assay type: physicochemical; settings: for Average saturated solubility of DMVT-505: visual solubility
In short: (§1)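 Values are the saturated solubility of the stilbene active ingredient in single pharmaceutical excipients, with one excipient tested per sample. Solubility was determined by an HPLC assay for the active ingredient or by visual inspection.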

[3] = Gao et al., Journal of Polymer Research 2011; cited from earlier work
[4] = Tapinarof saturated solubility in excipients (Table 1); assay type: physicochemical
In short: as §1

- Purity of DMVT-505 ([1]; in Almond oil, t = 0): 100.00 % area
- Purity of DMVT-505 ([1]; in Almond oil, t = 2 weeks, 40° C.): 99.96 % area
- Purity of DMVT-505 ([1]; in Almond oil, t = 2 weeks, 70° C.): 99.84 % area
- Purity of DMVT-505 ([1]; in Arlasolve DMI, t = 0): 99.55 % area
- Purity of DMVT-505 ([1]; in Arlasolve DMI, t = 2 weeks, 40° C.): 96.75 % area
- Purity of DMVT-505 ([1]; in Arlasolve DMI, t = 2 weeks, 70° C.): 95.14 % area
- Purity of DMVT-505 ([1]; in Castor oil, t = 0): 100.00 % area
- Purity of DMVT-505 ([1]; in Castor oil, t = 2 weeks, 40° C.): 100.00 % area
- Purity of DMVT-505 ([1]; in Castor oil, t = 2 weeks, 70° C.): 99.92 % area
- Purity of DMVT-505 ([1]; in Crodamol GTCC, t = 0): 99.92 % area
- Purity of DMVT-505 ([1]; in Crodamol GTCC, t = 2 weeks, 40° C.): 96.46 % area
- Purity of DMVT-505 ([1]; in Crodamol GTCC, t = 2 weeks, 70° C.): 96.94 % area
- Purity of DMVT-505 ([1]; in Diethyl sebacate, t = 0): 100.00 % area
- Purity of DMVT-505 ([1]; in Diethyl sebacate, t = 2 weeks, 40° C.): 96.72 % area
- Purity of DMVT-505 ([1]; in Diethyl sebacate, t = 2 weeks, 70° C.): 95.78 % area
- Purity of DMVT-505 ([1]; in Diisopropyl adipate, t = 0): 100.00 % area
- Purity of DMVT-505 ([1]; in Diisopropyl adipate, t = 2 weeks, 40° C.): 99.79 % area
- Purity of DMVT-505 ([1]; in Diisopropyl adipate, t = 2 weeks, 70° C.): 95.94 % area
- Purity of DMVT-505 ([1]; in Dipropylene glycol, t = 0): 99.97 % area
- Purity of DMVT-505 ([1]; in Dipropylene glycol, t = 2 weeks, 40° C.): 99.83 % area
- Purity of DMVT-505 ([1]; in Dipropylene glycol, t = 2 weeks, 70° C.): 98.89 % area
- Purity of DMVT-505 ([1]; in Ethanol, t = 0): 99.89 % area
- Purity of DMVT-505 ([1]; in Ethanol, t = 2 weeks, 40° C.): 99.72 % area
- Purity of DMVT-505 ([1]; in Ethanol, t = 2 weeks, 70° C.): 98.57 % area
- Purity of DMVT-505 ([1]; in Hexylene glycol, t = 0): 99.96 % area
- Purity of DMVT-505 ([1]; in Hexylene glycol, t = 2 weeks, 40° C.): 99.54 % area
- Purity of DMVT-505 ([1]; in Hexylene glycol, t = 2 weeks, 70° C.): 98.76 % area
- Purity of DMVT-505 ([1]; in IPA, t = 0): 99.91 % area
- Purity of DMVT-505 ([1]; in IPA, t = 2 weeks, 40° C.): 99.86 % area
- Purity of DMVT-505 ([1]; in IPA, t = 2 weeks, 70° C.): 99.25 % area
- Purity of DMVT-505 ([1]; in IPM, t = 0): 100.00 % area
- Purity of DMVT-505 ([1]; in IPM, t = 2 weeks, 40° C.): 99.32 % area
- Purity of DMVT-505 ([1]; in IPM, t = 2 weeks, 70° C.): 92.15 % area
- Purity of DMVT-505 ([1]; in IPP, t = 0): 100.00 % area
- Purity of DMVT-505 ([1]; in IPP, t = 2 weeks, 40° C.): 99.30 % area
- Purity of DMVT-505 ([1]; in IPP, t = 2 weeks, 70° C.): 99.52 % area
- Purity of DMVT-505 ([1]; in Jojoba oil, t = 0): 99.97 % area
- Purity of DMVT-505 ([1]; in Jojoba oil, t = 2 weeks, 40° C.): 98.98 % area
- Purity of DMVT-505 ([1]; in Jojoba oil, t = 2 weeks, 70° C.): 99.09 % area
- Purity of DMVT-505 ([1]; in Kollicream ® 3C, t = 0): 100.00 % area
- Purity of DMVT-505 ([1]; in Kollicream ® 3C, t = 2 weeks, 40° C.): 98.98 % area
- Purity of DMVT-505 ([1]; in Kollicream ® 3C, t = 2 weeks, 70° C.): 96.51 % area
- Purity of DMVT-505 ([1]; in Kollicream ® OA, t = 0): 100.00 % area
- Purity of DMVT-505 ([1]; in Kollicream ® OA, t = 2 weeks, 40° C.): 99.66 % area
- Purity of DMVT-505 ([1]; in Kollicream ® OA, t = 2 weeks, 70° C.): 99.46 % area
- Purity of DMVT-505 ([1]; in Kollicream ® OD, t = 0): 100.00 % area
- Purity of DMVT-505 ([1]; in Kollicream ® OD, t = 2 weeks, 40° C.): 99.38 % area
- Purity of DMVT-505 ([1]; in Kollicream ® OD, t = 2 weeks, 70° C.): 98.11 % area
- Purity of DMVT-505 ([1]; in MethoxyPEG 350, t = 0): 99.59 % area
- Purity of DMVT-505 ([1]; in MethoxyPEG 350, t = 2 weeks, 40° C.): 98.42 % area
- Purity of DMVT-505 ([1]; in MethoxyPEG 350, t = 2 weeks, 70° C.): 95.50 % area
- Purity of DMVT-505 ([1]; in Olive oil, t = 0): 100.00 % area
- Purity of DMVT-505 ([1]; in Olive oil, t = 2 weeks, 40° C.): 99.91 % area
- Purity of DMVT-505 ([1]; in Olive oil, t = 2 weeks, 70° C.): 99.74 % area
- Purity of DMVT-505 ([1]; in PEG 200, t = 0): 99.91 % area
- Purity of DMVT-505 ([1]; in PEG 200, t = 2 weeks, 40° C.): 99.86 % area
- Purity of DMVT-505 ([1]; in PEG 200, t = 2 weeks, 70° C.): 98.56 % area
- Purity of DMVT-505 ([1]; in PEG 400, t = 0): 99.87 % area
- Purity of DMVT-505 ([1]; in PEG 400, t = 2 weeks, 40° C.): 99.30 % area
- Purity of DMVT-505 ([1]; in PEG 400, t = 2 weeks, 70° C.): 98.63 % area
- Purity of DMVT-505 ([1]; in Propylene glycol, t = 0): 99.90 % area
- Purity of DMVT-505 ([1]; in Propylene glycol, t = 2 weeks, 40° C.): 99.51 % area
- Purity of DMVT-505 ([1]; in Propylene glycol, t = 2 weeks, 70° C.): 99.23 % area
- Purity of DMVT-505 ([1]; in Sesame oil, t = 0): 100.00 % area
- Purity of DMVT-505 ([1]; in Sesame oil, t = 2 weeks, 40° C.): 99.94 % area
- Purity of DMVT-505 ([1]; in Sesame oil, t = 2 weeks, 70° C.): 99.67 % area
- Purity of DMVT-505 ([1]; in Sorbitan monooleate (Span 80), t = 0): 100.00 % area
- Purity of DMVT-505 ([1]; in Sorbitan monooleate (Span 80), t = 2 weeks, 40° C.): 100.00 % area
- Purity of DMVT-505 ([1]; in Sorbitan monooleate (Span 80), t = 2 weeks, 70° C.): 99.79 % area
- Purity of DMVT-505 ([1]; in Sunflower oil, t = 0): 100.00 % area
- Purity of DMVT-505 ([1]; in Sunflower oil, t = 2 weeks, 40° C.): 100.00 % area
- Purity of DMVT-505 ([1]; in Sunflower oil, t = 2 weeks, 70° C.): 99.51 % area
- Average saturated solubility of DMVT-505 (mean of n = 3) ([2]; in Almond oil): 11.94 % w/w
- Average saturated solubility of DMVT-505 (mean of n = 3) ([2]; in Aloe vera juice): 0.01 % w/w
- Average saturated solubility of DMVT-505 (mean of n = 3) ([2]; in Castor oil): 7.06 % w/w
- Average saturated solubility of DMVT-505 ([2]; in Dipropylene glycol): ≥20 (visual solubility) % w/w
- Average saturated solubility of DMVT-505 ([2]; in Ethanol): ≥20 (visual solubility) % w/w
- Average saturated solubility of DMVT-505 ([2]; in Isopropyl myristate): ≥20 (visual solubility) % w/w
- Average saturated solubility of DMVT-505 (mean of n = 3) ([2]; in Jojoba oil): 8.19 % w/w
- Average saturated solubility of DMVT-505 (mean of n = 3) ([2]; in Kollicream ® 3C (cocoyl caprylocaprate)): 19.03 % w/w
- Average saturated solubility of DMVT-505 (mean of n = 3) ([2]; in Kollicream ® OA (oleyl alcohol)): 15.82 % w/w
- Average saturated solubility of DMVT-505 (mean of n = 3) ([2]; in Kollicream ® OD (octyldodecanol)): 11.03 % w/w
- Average saturated solubility of DMVT-505 ([2]; in MethoxyPEG 350): ≥20 (visual solubility) % w/w
- Average saturated solubility of DMVT-505 (mean of n = 3) ([2]; in Olive oil): 11.35 % w/w
- Average saturated solubility of DMVT-505 ([2]; in PEG 200): ≥20% (visual solubility) % w/w
- Average saturated solubility of DMVT-505 (mean of n = 3) ([2]; in Safflower oil): 11.68 % w/w
- Average saturated solubility of DMVT-505 (mean of n = 3) ([2]; in Sesame oil): 11.56 % w/w
- Average saturated solubility of DMVT-505 (mean of n = 3) ([2]; in Soyabean oil): 11.68 % w/w
- Average saturated solubility of DMVT-505 (mean of n = 3) ([2]; in Sunflower oil): 12.05 % w/w
- Average saturated solubility of DMVT-505 (mean of n = 3) ([2]; in Walnut oil): 12.43 % w/w
- Solubility (tapinarof saturated solubility) ([4]; in Benzyl alcohol): 193 mg/g
- Solubility (tapinarof saturated solubility) ([4]; in Diethyl sebacate): 488 mg/g
- Solubility (tapinarof saturated solubility) ([4]; in Diisopropyl adipate): 187 mg/g
- Solubility (tapinarof saturated solubility) ([4]; in Dimethyl isosorbide): 496 mg/g
- Solubility (tapinarof saturated solubility) ([4]; in Glycerol): 14 mg/g
- Solubility (tapinarof saturated solubility) ([4]; in Hexylene glycol): 386 mg/g
- Solubility (tapinarof saturated solubility) ([4]; in Isopropyl alcohol): 485 mg/g
- Solubility (tapinarof saturated solubility) ([4]; in Isopropyl palmitate): 231 mg/g
- Solubility (tapinarof saturated solubility) ([4]; in Medium chain triglycerides): 273 mg/g
- Solubility (tapinarof saturated solubility) ([4]; in Mineral oil): 0.26 mg/g
- Solubility (tapinarof saturated solubility) ([4]; in Phenoxyethanol): 381 mg/g
- Solubility (tapinarof saturated solubility) ([4]; in Polyethylene glycol 400): 373 mg/g
- Solubility (tapinarof saturated solubility) ([4]; in Polysorbate 80): 263 mg/g
- Solubility (tapinarof saturated solubility) ([4]; in Propylene carbonate): 506 mg/g
- Solubility (tapinarof saturated solubility) ([4]; in Propylene glycol): 444 mg/g
- Solubility (tapinarof saturated solubility) ([4]; in Sorbitan oleate): 137 mg/g
- Solubility (tapinarof saturated solubility) ([4]; in Water): 0.14 mg/g
- Solubility (tapinarof saturated solubility) ([4]; in diethylene glycol monoethyl ether (DEGEE)): 526 mg/g
SMILES: CC(C)c1c(O)cc(/C=C/c2ccccc2)cc1O [tapinarof, 3,5-Dihydroxy-4-isopropyl-trans-stilbene]
- Sensitivity to oxidation and photo degradation [3]: sensitive to oxidation and photo degradation
